Source: patent US7910599B2 (priority 2005, dated 2011)
Entries after “also recorded” stand apart in the source; their conditions may differ.

Columns and labels:
[1] = continual administration; cited from earlier work
[2] = system: patients suffering from binge eating; settings: 50 mg once, twice or 3 times daily; cited from earlier work
[3] = system: humans; settings: cited from earlier work
[4] = system: alcoholics; settings: cited from earlier work
[5] = system: rats; experiment: Rats kept continually on antagonist in the food, alcohol drinking; assay type: in vivo, rat; settings: large doses in the food, continual presence; less reduction than selective extinction with naloxone
[6] = system: humans; settings: acute study; cited from earlier work
[7] = system: Male Wistar rats; experiment: Selective extinction in alcohol-experienced rats: naloxone before alcohol access, saccharin access without injection; assay type: in vivo, rat
Method: The example included here is a prior preclinical experiment in which the alternative opioidergically-reinforced behavior was saccharin drinking. Alcohol experienced rats had continual access to food and water. Alcohol solution was available for only an hour a day for 2 to 4 days. On the next day or two, saccharin solution instead was available. Naloxone (or saline for the control group) was injected prior to the alcohol session.
Male Wistar rats (n=26) were individually housed with daily access to 10% ethanol, with food and water always present. After 2 months prior experience, the rats were switched to having 2-4 alcohol-access days interspersed with 1 or 2 days when saccharin solution (1 g/l) was available for 1 hr. […] No injections were made prior to saccharin access.

[8] = system: humans; settings: highly palatable versus less pleasant tasting foods; cited from earlier work
[9] = subcutaneous naloxone prior to alcohol access, dose reduced from 10.000 to 0.005 mg/kg

SMILES	side-effects [1]	treatment of binge eating versus placebo [2]	preference for saccharin [3]	efficacy in alcoholism when given during abstinence ([4]; naltrexone given during abstinence)	efficacy in alcoholism when paired with alcohol drinking ([4]; naltrexone paired with drinking (extinction method))	maximum days per week (naltrexone and drinking) reported by complying patients ([4]; three-year follow-up, mean ± SEM)	alcohol drinking [5]	size of an eating binge [6]	saccharin drinking in the same animals ([7]; first three weeks)	alcohol drinking ([7]; first three weeks, naloxone doses in the range previously found effective)	alcohol drinking in comparison with saline controls and own prior levels ([7]; subcutaneous naloxone prior to alcohol access (10% ethanol), dose progressively reduced from 10.000 to 0.005 mg/kg)	time alcohol drinking continued to be significantly reduced [7, 9]	time alcohol drinking was reduced to nearly zero for most rats [7, 9]	food intake [8]
O=C1CC[C@@]2(O)[C@H]3Cc4ccc(O)c5c4[C@@]2(CCN3CC2CC2)[C@H]1O5 [naltrexone]	liver toxicity	not significantly better than placebo	reduces	tended to be worse than placebo	effective	1.5±0.4 days per week	significantly lowered							
C=CCN1CC[C@]23c4c5ccc(O)c4O[C@H]2C(=O)CC[C@@]3(O)[C@H]1C5 [naloxone]								significantly reduced	significantly increased	practically abolished	strongly reduced; also recorded: significantly reduced	8 weeks	6 weeks	
C=C1CC[C@@]2(O)[C@H]3Cc4ccc(O)c5c4[C@@]2(CCN3CC2CC2)[C@H]1O5 [nalmefene]							significantly lowered							suppresses intake of highly palatable foods but not that of less pleasant tasting ones
